Columns and labels:
Assay type in all cases: in vivo
[1] = test system: Scirpus juncoides; assay: Test Example 5: herbicidal effect test by soil application in paddy rice (low dose); details: Schoenoplectiella juncoides, 336 h, 7.5 g per 10 ares, applied immediately after sowing, flooded pots, 14 days after application, read-out: weed inhibition rate
Description: (§1) The present test was conducted in duplicate for each chemical concentration group, and the weed inhibition rate (%) was determined 14 days after chemical application using the following formula (Math. 1). [formula]
(§2) Wagner pots with an area of […] were filled with paddy soil, followed by addition of water and incorporation of chemical fertilizer (N:P:K = 16:16:16), after which puddling was performed. After that, seeds of Echinochloa crus-galli var. formosensis, broad-leaved weeds (Monochoria vaginalis), and Scirpus juncoides were sown at a depth of 0 cm to 1 cm, 30 seeds each. Immediately after sowing, the pots were flooded and a water depth of approximately 3 cm was maintained. Subsequent management was conducted in a glass greenhouse. Immediately thereafter, an emulsifiable concentrate prepared according to Formulation Example 5 using the compound shown below was diluted with water, and a specified amount of the diluted solution was applied by dropper. The amount of the active ingredient to be applied was equivalent to 7.5 g per 10 ares.
(§3) The present test was conducted in duplicate for each chemical concentration group, and the herbicidal effect was evaluated 14 days after chemical application using the same criteria as in Test Example 1.

[2] = test system: Digitaria ciliaris; assay: Test Example 4: herbicidal effect test by stem and leaf treatment in upland field; details: Digitaria ciliaris; 120 g per 10 ares; sprayed seven days after sowing, upland soil; 14 days after application; read-out: weed inhibition rate
[3] = test system: Digitaria ciliaris; assay: Test Example 8: herbicidal effect test by stem and leaf treatment in upland field (low dose); details: Digitaria ciliaris; 7.5 g per 10 ares; sprayed seven days after sowing, upland soil; 14 days after application; read-out: weed inhibition rate
[4] = test system: Echinochloa crus-galli; assay: as above; details: Echinochloa crus-galli; 7.5 g per 10 ares; sprayed seven days after sowing, upland soil; 14 days after application; read-out: weed inhibition rate
[5] = test system: Echinochloa crus-galli var. formosensis; assay: Test Example 2: herbicidal effect test by application during growth period of paddy rice; details: Echinochloa crus-galli; 120 g per 10 ares; applied seven days after sowing, flooded pots; 14 days after application; read-out: weed inhibition rate
Summary of the method: (§4)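 Paddy soil in Wagner pots was puddled with N:P:K 16:16:16 fertilizer, sown with 30 weed seeds per species at 0–1 cm and flooded to about 3 cm. Seven days after sowing, a water-diluted emulsifiable concentrate was dropped onto the water at 120 g active ingredient per 10 ares. Weed inhibition (%) was scored at 14 days, in duplicate.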

[6] = test system: Scirpus juncoides; assay: as above; details: Schoenoplectiella juncoides; 120 g per 10 ares; applied seven days after sowing, flooded pots; 14 days after application; read-out: weed inhibition rate
Summary of the method: as §4

[7] = test system: Monochoria vaginalis; assay: as above; details: Pontederia vaginalis; 120 g per 10 ares; applied seven days after sowing, flooded pots; 14 days after application; read-out: weed inhibition rate
Summary of the method: as §4

[8] = test system: Echinochloa crus-galli var. formosensis; assay: Test Example 1: herbicidal effect test by soil application in paddy rice; details: 120 g active ingredient per 10 ares, applied immediately after sowing, flooded pots, 14 days after application; for pest or weed control at 1200 g/ha: Echinochloa crus-galli, soil, 336 h, read-out: weed inhibition rate
Summary of the method: (§5)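 Treatment: 120 g active ingredient per 10 ares as a water-diluted emulsifiable concentrate, dropped onto flooded pots immediately after sowing. Thirty seeds per species went 0–1 cm into puddled paddy soil with 16:16:16 fertilizer, with ~3 cm flooding maintained in a glass greenhouse.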

[9] = test system: Scirpus juncoides; assay: as above; details: 120 g active ingredient per 10 ares, applied immediately after sowing, flooded pots, 14 days after application; for pest or weed control at 1200 g/ha: Schoenoplectiella juncoides, soil, 336 h, read-out: weed inhibition rate
Summary of the method: as §5

[10] = test system: Monochoria vaginalis; assay: as above; details: Pontederia vaginalis, soil, 336 h; 120 g active ingredient per 10 ares; applied immediately after sowing, flooded pots; 14 days after application; read-out: weed inhibition rate
Summary of the method: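 Inhibition rate (%) read 14 days after treatment, duplicate pots. Water-diluted emulsifiable concentrate was applied by dropper at 120 g active ingredient/10 ares right after sowing. Seeds (30 per species, 0–1 cm deep) went into puddled paddy soil kept flooded at about 3 cm in a greenhouse.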

[11] = test system: Monochoria vaginalis; assay: Test Example 5: herbicidal effect test by soil application in paddy rice (low dose); details: Pontederia vaginalis, 336 h, 7.5 g per 10 ares, applied immediately after sowing, flooded pots, 14 days after application, read-out: weed inhibition rate
Description: as §1, §2, §3

CC(C)[C@]12C[C@@H](OCc3ccccc3F)[C@](C)(C[C@@H]1O)O2 [1-30, (1R,2S,4S,5R)-5-((2-fluorobenzyl)oxy)-1-isopropyl-4-methyl-7-oxabicyclo[2.2.1]heptan-2-ol]
≥ 80%: inhibition at 75 g/ha [1] | inhibition at 1200 g/ha [2] | inhibition at 75 g/ha [3] | inhibition at 75 g/ha [4] | inhibition at 1200 g/ha [5] | inhibition at 1200 g/ha [6] | inhibition at 1200 g/ha [7] | pest or weed control at 1200 g/ha [8] | pest or weed control at 1200 g/ha [9] | pest or weed control at 1200 g/ha [10]

CC(C)[C@]12C[C@@H](OCc3c(F)cccc3F)[C@](C)(C[C@@H]1O)O2 [1-41, (1R,2S,4S,5R)-5-((2,6-difluorobenzyl)oxy)-1-isopropyl-4-methyl-7-oxabicyclo[2,2,1]heptan-2-ol]
≥ 80%: inhibition at 75 g/ha [1] | inhibition at 1200 g/ha [2] | inhibition at 75 g/ha [3] | inhibition at 75 g/ha [4] | inhibition at 1200 g/ha [5] | inhibition at 1200 g/ha [6] | inhibition at 1200 g/ha [7] | pest or weed control at 1200 g/ha [8] | pest or weed control at 1200 g/ha [9] | pest or weed control at 1200 g/ha [10]

CC(C)[C@]12C[C@@H](OCc3c(F)cccc3Cl)[C@](C)(C[C@@H]1Br)O2 [1-713, (1S,2R,4R,5S)-5-bromo-2-[(2-chloro-6-fluorophenyl)methoxy]-1-methyl-4-isopropyl-7-oxabicyclo[2.2.1]heptane]
≥ 80%: inhibition at 75 g/ha [11] | inhibition at 1200 g/ha [2] | inhibition at 75 g/ha [3] | inhibition at 75 g/ha [4] | inhibition at 1200 g/ha [5] | inhibition at 1200 g/ha [6] | inhibition at 1200 g/ha [7] | pest or weed control at 1200 g/ha [8] | pest or weed control at 1200 g/ha [9] | pest or weed control at 1200 g/ha [10]

CC(C)[C@]12C=C[C@](C)(O1)C(OCc1ccccc1F)C2 (mixture of isomers) [3-5, (1R,4S,SR)-5-[(2-fluorophenyl)methoxy]-4-methyl-1-isopropyl-7-oxabicyclo[2.2.1]hept-2-ene]
≥ 80%: inhibition at 75 g/ha [1] | inhibition at 1200 g/ha [2] | inhibition at 75 g/ha [3] | inhibition at 75 g/ha [4] | inhibition at 1200 g/ha [5] | inhibition at 1200 g/ha [6] | inhibition at 1200 g/ha [7] | pest or weed control at 1200 g/ha [8] | pest or weed control at 1200 g/ha [9] | pest or weed control at 1200 g/ha [10]

C=CCO[C@H]1C[C@]2(C)O[C@@]1(C(C)C)C[C@H]2OCc1ccccc1F [1-1602, (1S,2R,4R,5S)-2-[(2-fluorophenyl)methoxy]-1-methyl-4-isopropyl-5-prop-2-enoxy-7-oxabicyclo[2.2.1]heptane]
≥ 80%: inhibition at 75 g/ha [1] | inhibition at 1200 g/ha [2] | inhibition at 75 g/ha [3] | inhibition at 75 g/ha [4] | inhibition at 1200 g/ha [5] | inhibition at 1200 g/ha [6] | inhibition at 1200 g/ha [7] | pest or weed control at 1200 g/ha [8] | pest or weed control at 1200 g/ha [9]

CC(C)[C@]12C[C@@H](OCc3ccccc3F)[C@](C)(C[C@@H]1OCc1ccccc1F)O2 [1-603, (1S,2R,4R,5S)-2,5-bis[(2-fluorophenyl)methoxy]-1-methyl-4-isopropyl-7-oxabicyclo[2.2.1]heptane]
≥ 80%: inhibition at 75 g/ha [11] | inhibition at 1200 g/ha [2] | inhibition at 1200 g/ha [5] | inhibition at 1200 g/ha [6] | inhibition at 1200 g/ha [7] | pest or weed control at 1200 g/ha [8] | pest or weed control at 1200 g/ha [9] | pest or weed control at 1200 g/ha [10]

CC(C)[C@]12C[C@@H](OCc3c(Cl)cccc3Cl)[C@](C)(C[C@@H]1Br)O2 [1-712, (1S,2R,4R,5S)-5-bromo-2-[(2,6-dichlorophenyl)methoxy]-1-methyl-4-isopropyl-7-oxabicyclo[2.2.1]heptane]
≥ 80%: inhibition at 75 g/ha [11] | inhibition at 1200 g/ha [2] | inhibition at 75 g/ha [4] | inhibition at 1200 g/ha [5] | inhibition at 1200 g/ha [6] | inhibition at 1200 g/ha [7] | pest or weed control at 1200 g/ha [8] | pest or weed control at 1200 g/ha [9] | pest or weed control at 1200 g/ha [10]

CC(C)[C@]12C[C@@H](OCc3ccccc3Cl)[C@](C)(CC1=O)O2 [2-11, (1R,4S,5R)-5-((2-chlorobenzyl)oxy)-1-isopropyl-4-methyl-7-oxabicyclo[2.2.1]heptan-2-one]
≥ 80%: inhibition at 75 g/ha [1] | inhibition at 1200 g/ha [2] | inhibition at 75 g/ha [3] | inhibition at 75 g/ha [4] | inhibition at 1200 g/ha [5] | inhibition at 1200 g/ha [6] | inhibition at 1200 g/ha [7] | pest or weed control at 1200 g/ha [8] | pest or weed control at 1200 g/ha [9]

CO[C@H]1C[C@]2(C)O[C@@]1(C(C)C)C[C@H]2OCc1ccccc1C [1-151, (1 S,2R,4R,5S)-4-isopropyl-5-methoxy-l-methyl-2-((2-methylbenzyl)oxy)-7-oxabicyclo[2.2.1]heptane]
≥ 80%: inhibition at 75 g/ha [1] | inhibition at 1200 g/ha [2] | inhibition at 75 g/ha [3] | inhibition at 75 g/ha [4] | inhibition at 1200 g/ha [5] | inhibition at 1200 g/ha [6] | inhibition at 1200 g/ha [7] | weed inhibition rate [8] | weed inhibition rate [9]

CC(C)[C@]12C[C@@H](OCc3ccccc3Br)[C@](C)(C[C@@H]1Br)O2 [1-694, (1S,2R,4R,5S)-5-bromo-2-[(2-bromophenyl)methoxy]-1-methyl-4-isopropyl-7-oxabicyclo[2.2.1]heptane]
≥ 80%: inhibition at 75 g/ha [11] | inhibition at 75 g/ha [4] | inhibition at 1200 g/ha [5] | inhibition at 1200 g/ha [7] | pest or weed control at 1200 g/ha [8] | pest or weed control at 1200 g/ha [10]

CC(C)[C@]12C[C@@H](OCc3c(F)cccc3F)[C@](C)(C[C@@H]1F)O2 [1-7, (1S,2R,4R,5S)-2-((2,6-difluorobenzyl)oxy)-5-fluoro-4-isopropyl-1-methyl-7-oxabicyclo[2.2.1]heptane]
≥ 80%: inhibition at 75 g/ha [1] | inhibition at 1200 g/ha [2] | inhibition at 75 g/ha [3] | inhibition at 75 g/ha [4] | inhibition at 1200 g/ha [5] | inhibition at 1200 g/ha [6] | inhibition at 1200 g/ha [7] | pest or weed control at 1200 g/ha [8] | pest or weed control at 1200 g/ha [9] | pest or weed control at 1200 g/ha [10]

CC(C)CC1C[C@]2(C)O[C@@]1(C(C)C)C[C@H]2OCc1ccccc1F (stereo partly drawn) [1-915, (1S,2R,4R)-2-((2-fluorobenzyl)oxy)-5-isobutyl-4-isopropyl-1-methyl-7-oxabicyclo[2.2.1]heptane]
≥ 80%: inhibition at 75 g/ha [1] | inhibition at 1200 g/ha [2] | inhibition at 75 g/ha [3] | inhibition at 75 g/ha [4] | inhibition at 1200 g/ha [5] | inhibition at 1200 g/ha [6] | inhibition at 1200 g/ha [7] | pest or weed control at 1200 g/ha [8] | pest or weed control at 1200 g/ha [9] | pest or weed control at 1200 g/ha [10]

CC(C)[C@]12C[C@@H](OCc3ccccc3F)[C@](C)(C[C@@H]1Br)O2 [1-19, (1S,2R,4R,5S)-5-bromo-2-[(2-fluorophenyl)methoxy]-1-methyl-4-isopropyl-7-oxabicyclo[2.2.1]heptane]
≥ 80%: inhibition at 75 g/ha [1] | inhibition at 1200 g/ha [2] | inhibition at 75 g/ha [3] | inhibition at 75 g/ha [4] | inhibition at 1200 g/ha [5] | inhibition at 1200 g/ha [6] | inhibition at 1200 g/ha [7] | pest or weed control at 1200 g/ha [8] | pest or weed control at 1200 g/ha [9] | pest or weed control at 1200 g/ha [10]

Reference: patent publication EP4707280A1, “1,4-CINEOLE DERIVATIVE AND INTERMEDIATE THEREOF, HERBICIDE CONTAINING SAID DERIVATIVE AS ACTIVE INGREDIENT, METHOD FOR USING HERBICIDE, AND METHOD FOR PREPARING AGROCHEMICAL COMPOSITION” (HOKKO CHEMICAL INDUSTRY CO., LTD., priority 2023, dated 2024)
